The values that follow come from the supplement of paper PMC10307832.

What all share (experiment): relative viability (nuclei count vs DMSO), 5 days (fraction); higher = more cells survive
Compound in the assay “IMD-0354 + Decitabine”: O=C(Nc1cc(C(F)(F)F)cc(C(F)(F)F)c1)c1cc(Cl)ccc1O [IMD-0354] + Nc1ncn([C@H]2C[C@H](O)[C@@H](CO)O2)c(=O)n1 [Decitabine] (partner 2 µM)
A digest of the protocol: (§1)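 Relative viability was taken as the ratio of nuclei in treated wells to nuclei in vehicle wells. Lung cancer cell lines in 1536-well plates received compounds by pin tool one day after seeding, either one drug alone or a fixed anchor-drug dose plus five library-drug doses (not always all listed) in √10 steps. Nuclei were counted on 4× images after 5 days of treatment, and values are medians of duplicate plates.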

Compound in the assay “CX-5461 + Decitabine”: Cc1cnc(CNC(=O)c2c(=O)c3ccc(N4CCCN(C)CC4)nc3n3c2sc2ccccc23)cn1 [CX-5461] + Nc1ncn([C@H]2C[C@H](O)[C@@H](CO)O2)c(=O)n1 [Decitabine] (partner 2 µM)
The procedure, abridged:
as §1

Compound in the assay “CX-5461 + Foretinib”: Cc1cnc(CNC(=O)c2c(=O)c3ccc(N4CCCN(C)CC4)nc3n3c2sc2ccccc23)cn1 [CX-5461] + COc1cc2c(Oc3ccc(NC(=O)C4(C(=O)Nc5ccc(F)cc5)CC4)cc3F)ccnc2cc1OCCCN1CCOCC1 [Foretinib] (partner 0.25 µM)
A digest of the protocol: as §1

Compound in the assay “IMD-0354 + Navitoclax”: O=C(Nc1cc(C(F)(F)F)cc(C(F)(F)F)c1)c1cc(Cl)ccc1O [IMD-0354] + CC1(C)CCC(c2ccc(Cl)cc2)=C(CN2CCN(c3ccc(C(=O)NS(=O)(=O)c4ccc(N[C@H](CCN5CCOCC5)CSc5ccccc5)c(S(=O)(=O)C(F)(F)F)c4)cc3)CC2)C1 [Navitoclax] (partner 0.5 µM)
A digest of the protocol: as §1

As to NCI-H1437, the relative viability worked out at 0.635 in the assay with IMD-0354 + Decitabine (first compound 0.04 µM); 0.538 with IMD-0354 + Decitabine (first compound 0.1265 µM); 0.34 in the assay with IMD-0354 + Decitabine (first compound 0.4 µM); 0.257 with IMD-0354 + Decitabine (first compound 1.265 µM); 0.229 in the assay with IMD-0354 + Decitabine (first compound 4 µM); 0.603 in the assay with CX-5461 + Decitabine (first compound 0.01 µM). Further, the relative viability with CX-5461 + Decitabine (first compound 0.03162 µM) turned out to be 0.556; in the assay with CX-5461 + Decitabine (first compound 0.1 µM), 0.545; with CX-5461 + Decitabine (first compound 0.3162 µM), 0.51; with CX-5461 + Decitabine (first compound 1 µM), 0.435; with CX-5461 + Foretinib (first compound 0.01 µM), 1.25; in the assay with CX-5461 + Foretinib (first compound 0.03162 µM), 1.26. Also, the relative viability was determined as 1.23 with CX-5461 + Foretinib (first compound 0.3162 µM); 1.18 with CX-5461 + Foretinib (first compound 1 µM); 1.17 with IMD-0354 + Navitoclax (first compound 0.04 µM); 1.13 in the assay with IMD-0354 + Navitoclax (first compound 0.1265 µM); 0.443 with IMD-0354 + Navitoclax (first compound 0.4 µM); 0.152 in the assay with IMD-0354 + Navitoclax (first compound 1.265 µM). Besides, the relative viability in the assay with IMD-0354 + Navitoclax (first compound 4 µM) worked out at 0.244.
With NCI-H1650, the relative viability was determined as 0.378 in the assay with IMD-0354 + Decitabine (first compound 0.04 µM); 0.455 in the assay with IMD-0354 + Decitabine (first compound 0.1265 µM); 0.285 with IMD-0354 + Decitabine (first compound 0.4 µM); 0.203 in the assay with IMD-0354 + Decitabine (first compound 1.265 µM); 0.129 in the assay with IMD-0354 + Decitabine (first compound 4 µM); 0.395 in the assay with CX-5461 + Decitabine (first compound 0.01 µM). The relative viability with CX-5461 + Decitabine (first compound 0.03162 µM) is 0.441; with CX-5461 + Decitabine (first compound 0.1 µM), 0.344; with CX-5461 + Decitabine (first compound 0.3162 µM), 0.378; in the assay with CX-5461 + Decitabine (first compound 1 µM), 0.207; with CX-5461 + Foretinib (first compound 0.01 µM), 1.35; with CX-5461 + Foretinib (first compound 0.03162 µM) it was 1.45. The relative viability stood at 0.958 with CX-5461 + Foretinib (first compound 0.1 µM); 0.928 in the assay with CX-5461 + Foretinib (first compound 0.3162 µM); 0.385 with CX-5461 + Foretinib (first compound 1 µM); 1.42 with IMD-0354 + Navitoclax (first compound 0.04 µM); 1.06 with IMD-0354 + Navitoclax (first compound 0.1265 µM); 0.682 with IMD-0354 + Navitoclax (first compound 0.4 µM). Besides, the relative viability worked out at 0.149 in the assay with IMD-0354 + Navitoclax (first compound 1.265 µM) and 0.171 with IMD-0354 + Navitoclax (first compound 4 µM).
Regarding NCI-H1651, the relative viability with IMD-0354 + Decitabine (first compound 0.04 µM) stood at 0.667; with IMD-0354 + Decitabine (first compound 0.1265 µM), 0.638; with IMD-0354 + Decitabine (first compound 0.4 µM), 0.528; with IMD-0354 + Decitabine (first compound 1.265 µM) it was 0.156; in the assay with IMD-0354 + Decitabine (first compound 4 µM), 0.147; with CX-5461 + Decitabine (first compound 0.01 µM), 0.598. Moreover, the relative viability with CX-5461 + Decitabine (first compound 0.03162 µM) was 0.554; in the assay with CX-5461 + Decitabine (first compound 0.1 µM) it was 0.452; with CX-5461 + Decitabine (first compound 0.3162 µM), 0.588; with CX-5461 + Decitabine (first compound 1 µM), 0.158; with CX-5461 + Foretinib (first compound 0.01 µM), 0.734; with CX-5461 + Foretinib (first compound 0.03162 µM) it was 0.55. The relative viability came to 0.598 with CX-5461 + Foretinib (first compound 0.3162 µM); 0.168 with CX-5461 + Foretinib (first compound 1 µM); 1.05 with IMD-0354 + Navitoclax (first compound 0.04 µM); 1.16 with IMD-0354 + Navitoclax (first compound 0.1265 µM); 0.337 with IMD-0354 + Navitoclax (first compound 0.4 µM); 0.052 with IMD-0354 + Navitoclax (first compound 1.265 µM). In addition, in the assay with IMD-0354 + Navitoclax (first compound 4 µM), the relative viability stood at 0.0654.
As to NCI-H1666, the relative viability was determined as 0.718 in the assay with IMD-0354 + Decitabine (first compound 0.04 µM); 0.751 with IMD-0354 + Decitabine (first compound 0.1265 µM); 0.716 with IMD-0354 + Decitabine (first compound 0.4 µM); 0.531 with IMD-0354 + Decitabine (first compound 1.265 µM); 0.393 with IMD-0354 + Decitabine (first compound 4 µM); 0.768 in the assay with CX-5461 + Decitabine (first compound 0.01 µM). The relative viability with CX-5461 + Decitabine (first compound 0.03162 µM) is 0.671; with CX-5461 + Decitabine (first compound 0.1 µM) it was 0.737; in the assay with CX-5461 + Decitabine (first compound 0.3162 µM) it was 0.701; with CX-5461 + Decitabine (first compound 1 µM), 0.731; in the assay with CX-5461 + Foretinib (first compound 0.01 µM) it was 1.02; with CX-5461 + Foretinib (first compound 0.03162 µM), 0.969. In addition, the relative viability is 0.962 in the assay with CX-5461 + Foretinib (first compound 0.1 µM); 0.916 in the assay with CX-5461 + Foretinib (first compound 0.3162 µM); 0.692 in the assay with CX-5461 + Foretinib (first compound 1 µM); 1.09 with IMD-0354 + Navitoclax (first compound 0.04 µM); 0.932 in the assay with IMD-0354 + Navitoclax (first compound 0.1265 µM); 0.83 with IMD-0354 + Navitoclax (first compound 0.4 µM). Moreover, the relative viability with IMD-0354 + Navitoclax (first compound 1.265 µM) was 0.153; with IMD-0354 + Navitoclax (first compound 4 µM), 0.174.
Consider NCI-H1734, for which the relative viability with IMD-0354 + Decitabine (first compound 0.04 µM) was 0.513; with IMD-0354 + Decitabine (first compound 0.1265 µM) it was 0.491; in the assay with IMD-0354 + Decitabine (first compound 0.4 µM) it was 0.467; with IMD-0354 + Decitabine (first compound 1.265 µM), 0.389; in the assay with IMD-0354 + Decitabine (first compound 4 µM), 0.213; with CX-5461 + Decitabine (first compound 0.01 µM) it was 0.509. For the same cell line, the relative viability with CX-5461 + Decitabine (first compound 0.03162 µM) is 0.489; in the assay with CX-5461 + Decitabine (first compound 0.1 µM), 0.557; in the assay with CX-5461 + Decitabine (first compound 0.3162 µM), 0.483; with CX-5461 + Decitabine (first compound 1 µM), 0.483; in the assay with CX-5461 + Foretinib (first compound 0.01 µM), 0.88; in the assay with CX-5461 + Foretinib (first compound 0.03162 µM), 0.878. For the same cell line, the relative viability with CX-5461 + Foretinib (first compound 0.1 µM) worked out at 0.941; with CX-5461 + Foretinib (first compound 0.3162 µM), 0.634; in the assay with CX-5461 + Foretinib (first compound 1 µM), 0.758; with IMD-0354 + Navitoclax (first compound 0.04 µM) it was 0.905; with IMD-0354 + Navitoclax (first compound 0.1265 µM), 0.86; with IMD-0354 + Navitoclax (first compound 0.4 µM), 0.446. The relative viability was found to be 0.412 in the assay with IMD-0354 + Navitoclax (first compound 1.265 µM) and 0.133 in the assay with IMD-0354 + Navitoclax (first compound 4 µM).
In the case of NCI-H1755, the relative viability is 0.798 with IMD-0354 + Decitabine (first compound 0.04 µM); 0.741 with IMD-0354 + Decitabine (first compound 0.1265 µM); 0.671 with IMD-0354 + Decitabine (first compound 0.4 µM); 0.644 in the assay with IMD-0354 + Decitabine (first compound 1.265 µM); 0.316 in the assay with IMD-0354 + Decitabine (first compound 4 µM); 0.782 with CX-5461 + Decitabine (first compound 0.01 µM). The relative viability is 0.763 in the assay with CX-5461 + Decitabine (first compound 0.03162 µM); 0.66 with CX-5461 + Decitabine (first compound 0.1 µM); 0.687 in the assay with CX-5461 + Decitabine (first compound 0.3162 µM); 0.69 with CX-5461 + Decitabine (first compound 1 µM); 0.934 with CX-5461 + Foretinib (first compound 0.01 µM); 0.905 in the assay with CX-5461 + Foretinib (first compound 0.03162 µM). In addition, the relative viability with CX-5461 + Foretinib (first compound 0.1 µM) was determined as 0.889; in the assay with CX-5461 + Foretinib (first compound 0.3162 µM), 0.913; with CX-5461 + Foretinib (first compound 1 µM), 0.898; with IMD-0354 + Navitoclax (first compound 0.04 µM), 1.1; with IMD-0354 + Navitoclax (first compound 0.1265 µM) it was 1.05; with IMD-0354 + Navitoclax (first compound 0.4 µM) it was 0.591. Further, the relative viability with IMD-0354 + Navitoclax (first compound 1.265 µM) was found to be 0.481; with IMD-0354 + Navitoclax (first compound 4 µM) it was 0.16.
As to NCI-H1793, the relative viability with IMD-0354 + Decitabine (first compound 0.04 µM) came out at 0.583; with IMD-0354 + Decitabine (first compound 0.1265 µM) it was 0.438; with IMD-0354 + Decitabine (first compound 0.4 µM) it was 0.335; with IMD-0354 + Decitabine (first compound 1.265 µM), 0.098; with IMD-0354 + Decitabine (first compound 4 µM) it was 0.262; with CX-5461 + Decitabine (first compound 0.01 µM), 0.504. Also, the relative viability with CX-5461 + Decitabine (first compound 0.03162 µM) turned out to be 0.446; with CX-5461 + Decitabine (first compound 0.1 µM), 0.535; with CX-5461 + Decitabine (first compound 0.3162 µM), 0.379; with CX-5461 + Decitabine (first compound 1 µM) it was 0.581; in the assay with CX-5461 + Foretinib (first compound 0.01 µM) it was 0.8; in the assay with CX-5461 + Foretinib (first compound 0.03162 µM), 0.734. Moreover, the relative viability stood at 0.665 in the assay with CX-5461 + Foretinib (first compound 0.1 µM); 0.802 in the assay with CX-5461 + Foretinib (first compound 1 µM); 0.356 in the assay with IMD-0354 + Navitoclax (first compound 0.04 µM); 0.472 with IMD-0354 + Navitoclax (first compound 0.1265 µM); 0.391 with IMD-0354 + Navitoclax (first compound 0.4 µM); 0.282 in the assay with IMD-0354 + Navitoclax (first compound 1.265 µM). Besides, the relative viability with IMD-0354 + Navitoclax (first compound 4 µM) is 0.246.
